# Data taken from US10785975B2, “Water and feed antimicrobial preservative” (priority 2009, dated 2020).
# Like-named read-outs stand apart in the source and are kept apart here.
# Tests used:
# [1] = test system: Salmonella typhimurium; assay: Example 2: effect of carbon chain length of individual organic acids on antimicrobial activity in water; format: cell-based; parameters: MIC at 4 HR / MIC at 24 FIR: unit not given here; conditions: for MIC at 4 HR / MIC at 24 FIR: Minimum Inhibitory Concentration of Organic Acids against Salmonella, by linear regression; for MIC at 24 FIR: 24 hours; for killing at […] / killing at 0.05 % / killing at 0.075 % / killing at 0.1 %: Salmonella enterica, TYPHIMURIUM
# Protocol: 100 ul of a nutrient broth culture of Salmonella typhimurium was added to each dilution tube. After addition, tubes were vortexed and allowed to stand. At 4 and 24 hours after addition of the inoculum, 100 ul of the solution was plated on agar (triplicate plates). Plates were incubated at 37° C. for 24 hours prior to enumeration. The minimum effective dose of each acid was be determined by linear regression: […]
# [2] = test system: Salmonella typhimurium; assay: Example 3: buffered organic acid mixtures with pelargonic acid in water; format: cell-based; conditions: for MIC at 4 HR / MIC at 24 HR: Minimum Inhibitory Concentration of Pelargonic when mixed with acetic or propionic acid (buffered to pH 3), by linear regression
# Protocol: Procedure: Propionic and acetic acids were buffered with ammonium hydroxide to a pH of 3 and combined with pelargonic in the ratios above. Acid content of the buffered solutions was determined by weight to weight ratio calculation (weight of acid/total weight of buffered solution) and adjusted to provide an equal acid value for each treatment. […] The pHs of the deionized water solutions were recorded and any problems with solubility noted.
# 100 ul of a nutrient broth culture of Salmonella typhimurium was added to each dilution tube. After addition, tubes were vortexed and allowed to stand. At 4 and 24 hours after addition of the inoculum, 100 ul of the solution was plated on Standard Plate agar (triplicate plates). Plates were incubated at 37° C. for 24 hours prior to enumeration. The minimum effective dose of each acid was determined by linear regression.
# [3] = test system: Salmonella typhimurium; assay: Study 6: capric acid in acetic or propionic acid against salmonella in poultry feed; format: cell-based; conditions: Capric/Propionic acids, 24 hours after treatment
# Protocol: (§1) Commercial poultry feed amended with Salmonella typhimurium was treated with 1 or 3 kg/MT of the solutions listed below. Twenty four hours after treatment, 10 gr of feed was added to 90 ml Butterfield buffer, mixed and then 100 ul of the solution was plated on Standard Plate agar (triplicate plates). Plates were incubated at 37° C. for 24 hours prior to enumeration.
# [4] = test system: Salmonella typhimurium; assay: Study 8: lauric acid in propionic acid against salmonella in poultry feed; format: cell-based; conditions: Lauric/Propionic acids, 24 hours after treatment
# Protocol: Lauric acid (5%, 10%, 20%) diluted with propionic acid was tested to determine its effectiveness against salmonella in feed.
# […] Twenty four hours after treatment, 10 gr of feed was added to 90 ml Butterfield buffer, mixed and then 100 ul of the solution was plated on Standard Plate agar (triplicate plates). Plates were incubated at 37° C. for 24 hours prior to enumeration.
# [5] = test system: Salmonella typhimurium; assay: Study 5: propionic, acetic and pelargonic acids alone or in combination in water; format: cell-based
# Protocol: Propionic, acetic and pelargonic acids by themselves or in combination as listed were added to sterile deionized water to make at a 0.05%, 0.04%, 0.03%, 0.02% and 0.01% total acid solutions. The pHs of the deionized water solutions were recorded and any problems with solubility noted. 100 ul of a nutrient broth culture of Salmonella typhimurium was added to each dilution tube. After addition, tubes were vortexed and allowed to stand. At 24 hours after addition of the inoculum, 100 ul of the solution was plated on Standard Plate agar (triplicate plates). Plates were incubated at 37° C. for 24 hours prior to enumeration.
# [6] = test system: Salmonella typhimurium; assay: Study 7: myristic acid in propionic acid against salmonella in poultry feed; format: cell-based; conditions: Myristic/Propionic acids, 24 hours after treatment
# Protocol: (§2) Myristic acid (5%, 10% and 20%) diluted in propionic acid was tested to determine its effectiveness against salmonella in feed.
# as §1
# [7] = Protocol: Pelargonic acid is a naturally occurring fatty acid found in almost all species of animals and plants. Because it contains nine carbon atoms, it is also called nonanoic acid has the chemical formula CH3(CH2)7COOH. It is found at low levels in many common foods and is readily broken down in the environment. It is an oily colorless fluid that solidifies at lower temperatures.
# In this experiment, the effect of free fatty acids was evaluated. […] The pH of the deionized water solutions was recorded and any problems with solubility noted
# as §2
# [8] = test system: M. gypseum; conditions: acids tested independently, cited from earlier work
# [9] = general description in background; cited from earlier work
# [10] = test system: C. irritans; conditions: cited from earlier work
# [11] = Test Product 0.01 % total acid solution in water
# [12] = Test Product 0.02 % total acid solution in water
# [13] = Test Product 0.04 % total acid solution in water
# [14] = Test Product 0.05 % total acid solution in water
# [15] = Product Conc. 0.025 (% total acid solution in water)
# [16] = Product Conc. 0.05 (% total acid solution in water)
# [17] = Product Conc. 0.075 (% total acid solution in water)
# [18] = Product Conc. 0.1 (% total acid solution in water)
smiles,measurement,setting,value
CCC(=O)O [Propionic acid],MIC at 4 HR,[1]; 4 hr,0166
same,MIC at 24 FIR,[1],0.066
same,Salmonella at time Interval 4 hr cfu/g,"[1]; Product Conc. 0.025 (% acid solution in water), 4 hr",1167 cfu/g
same,Salmonella at time Interval 24 hr cfu/g,"[1]; Product Conc. 0.025 (% acid solution in water), 24 hr",170 cfu/g
same,Salmonella at time Interval 4 hr cfu/g,"[1]; Product Conc. 0.05 (% acid solution in water), 4 hr",900 cfu/g
same,Salmonella at time Interval 24 hr cfu/g,"[1]; Product Conc. 0.05 (% acid solution in water), 24 hr",40 cfu/g
same,Salmonella at time Interval 4 hr cfu/g,"[1]; Product Conc. 0.075 (% acid solution in water), 4 hr",877 cfu/g
same,Salmonella at time Interval 24 hr cfu/g,"[1]; Product Conc. 0.075 (% acid solution in water), 24 hr",25 cfu/g
same,Salmonella at time Interval 4 hr cfu/g,"[1]; Product Conc. 0.1 (% acid solution in water), 4 hr",773 cfu/g
same,Salmonella at time Interval 24 hr cfu/g,"[1]; Product Conc. 0.1 (% acid solution in water), 24 hr",30 cfu/g
same,killing at […],"[1]; Product Conc. 0.025 (% acid solution in water), 4 hr, read-out: Salmonella at time Interval 4 hr % reduction",27%
same,killing at […],"[1]; Product Conc. 0.025 (% acid solution in water), 24 hr, read-out: Salmonella at time Interval 24 hr % reduction",90%
same,killing at 0.05 %,"[1]; Product Conc. 0.05 (% acid solution in water), 4 hr, read-out: Salmonella at time Interval 4 hr % reduction",44%
same,killing at 0.05 %,"[1]; Product Conc. 0.05 (% acid solution in water), 24 hr, read-out: Salmonella at time Interval 24 hr % reduction",98%
same,killing at 0.075 %,"[1]; Product Conc. 0.075 (% acid solution in water), 4 hr, read-out: Salmonella at time Interval 4 hr % reduction",45%
same,killing at 0.075 %,"[1]; Product Conc. 0.075 (% acid solution in water), 24 hr, read-out: Salmonella at time Interval 24 hr % reduction",99%
same,killing at 0.1 %,"[1]; Product Conc. 0.1 (% acid solution in water), 4 hr, read-out: Salmonella at time Interval 4 hr % reduction",52%
same,killing at 0.1 %,"[1]; Product Conc. 0.1 (% acid solution in water), 24 hr, read-out: Salmonella at time Interval 24 hr % reduction",98%
same,MIC at 4 HR,[2],0.179
same,MIC at 24 HR,[2],0.064
same,% Reduction,[3]; 1 kg/ton,0%
same,cfu/g,[3]; 1 kg/ton,4633 cfu/g
same,% Reduction,[3]; 3 kg/ton,0%
same,cfu/g,[3]; 3 kg/ton,5633 cfu/g
same,% Reduction,[4]; 1 kg/MT,92.3%
same,cfu/g,[4]; 1 kg/MT,2567 cfu/g
same,% Reduction,[4]; 3 kg/MT,100.0%
same,cfu/g,[4]; 3 kg/MT,0 cfu/g
same,Salmonella 24 hr afterTreatment (cfu/g),[5]; [11],1200 cfu/g
same,Salmonella 24 hr afterTreatment (cfu/g),[5]; [12],870 cfu/g
same,Salmonella 24 hr afterTreatment (cfu/g),[5]; Test Product 0.03 % total acid solution in water,810 cfu/g
same,Salmonella 24 hr afterTreatment (cfu/g),[5]; [13],910 cfu/g
same,Salmonella 24 hr afterTreatment (cfu/g),[5]; [14],560 cfu/g
same,% Reduction,[6]; 1 kg/MT,90.08%
same,cfu/g,[6]; 1 kg/MT,3967 cfu/g
same,% Reduction,[6]; 3 kg/MT,99.42%
same,cfu/g,[6]; 3 kg/MT,233 cfu/g
"CCCCCCCCCCCC(=O)O [lauric, Lauric acid]",solubility in water,[7],not soluble in water
CCCCCCCCC(=O)O [Pelargonic acid],minimum inhibitory concentration (MTC) to prevent growth of M. gypseum,[8]; in liquid media,50 mg/L
same,minimum inhibitory concentration (MTC) to prevent growth of M. gypseum,[8]; on solid media,40 mg/L
same,MIC at 4 HR,[1]; 4 hr,0.063
same,MIC at 24 FIR,[1],<0.025
same,solubility in water,[9],almost insoluble in water
same,controlling the growth of the parasite C. irritans,[10],effective in controlling the growth
same,MIC at 4 HR,[2],<0.025
same,MIC at 24 HR,[2],<0.025
same,Salmonella at time Interval 4 hr % reduction,[2]; [15],100%
same,Salmonella at time Interval 4 hr cfu/g,[2]; [15],0 cfu/g
same,Salmonella at time Interval 24 hr % reduction,[2]; [15],100%
same,Salmonella at time Interval 24 hr cfu/g,[2]; [15],0 cfu/g
same,Salmonella at time Interval 4 hr % reduction,[2]; [16],100%
same,Salmonella at time Interval 4 hr cfu/g,[2]; [16],0 cfu/g
same,Salmonella at time Interval 24 hr % reduction,[2]; [16],100%
same,Salmonella at time Interval 24 hr cfu/g,[2]; [16],0 cfu/g
same,Salmonella at time Interval 4 hr % reduction,[2]; [17],100%
same,Salmonella at time Interval 4 hr cfu/g,[2]; [17],0 cfu/g
same,Salmonella at time Interval 24 hr % reduction,[2]; [17],100%
same,Salmonella at time Interval 24 hr cfu/g,[2]; [17],0 cfu/g
same,Salmonella at time Interval 4 hr % reduction,[2]; [18],100%
same,Salmonella at time Interval 4 hr cfu/g,[2]; [18],0 cfu/g
same,Salmonella at time Interval 24 hr % reduction,[2]; [18],100%
same,Salmonella at time Interval 24 hr cfu/g,[2]; [18],0 cfu/g
same,Salmonella 24 hr afterTreatment (cfu/g),[5]; [11],1400 cfu/g
same,Salmonella 24 hr afterTreatment (cfu/g),[5]; [12],1300 cfu/g
same,Salmonella 24 hr afterTreatment (cfu/g),[5]; [13],1500 cfu/g
same,Salmonella 24 hr afterTreatment (cfu/g),[5]; [14],850 cfu/g
same,solubility in water,[7],not soluble in water
